According to the CheMixHub viscosity set:

Test: xn = mol fraction of the nth substance listed

CCCC(C)=O + C1CCCC1
viscosity [mPa·s], 101.33 kPa
Conditions | 293.15 K | 298.15 K | 303.15 K
x2 = 0.0411 | 0.49 | 0.463 | 0.44
x2 = 0.0966 | 0.481 | 0.455 | 0.431
x2 = 0.1985 | 0.471 | 0.445 | 0.422
x2 = 0.3214 | 0.458 | 0.433 | 0.41
x2 = 0.3876 | 0.452 | 0.428 | 0.406
x2 = 0.5026 | 0.443 | 0.419 | 0.398
x2 = 0.6097 | 0.436 | 0.414 | 0.392
x2 = 0.6934 | 0.433 | 0.41 | 0.39
x2 = 0.7996 | 0.429 | 0.407 | 0.387
x2 = 0.9054 | 0.429 | 0.406 | 0.386
x2 = 0.9515 | 0.433 | 0.41 | 0.389

CCCC(C)=O + C1CCCCC1
viscosity [mPa·s]
Conditions | 293.15 K | 298.15 K | 303.15 K
101.32 kPa, x2 = 0.1524 | – | – | 0.474
101.32 kPa, x2 = 0.2942 | – | – | 0.496
101.32 kPa, x2 = 0.3752 | – | – | 0.507
101.32 kPa, x2 = 0.4326 | – | – | 0.517
101.32 kPa, x2 = 0.5075 | – | – | 0.532
101.32 kPa, x2 = 0.5951 | – | – | 0.555
101.32 kPa, x2 = 0.7377 | – | – | 0.607
101.32 kPa, x2 = 0.8891 | – | – | 0.695
101.33 kPa, x2 = 0.0483 | 0.5 | 0.473 | 0.447
101.33 kPa, x2 = 0.0981 | 0.506 | 0.477 | 0.452
101.33 kPa, x2 = 0.1932 | 0.516 | 0.486 | 0.458
101.33 kPa, x2 = 0.296 | 0.537 | 0.504 | 0.476
101.33 kPa, x2 = 0.3957 | 0.562 | 0.528 | 0.498
101.33 kPa, x2 = 0.4987 | 0.594 | 0.554 | 0.52
101.33 kPa, x2 = 0.5982 | 0.625 | 0.591 | 0.548
101.33 kPa, x2 = 0.7002 | 0.68 | 0.632 | 0.594
101.33 kPa, x2 = 0.8051 | 0.748 | 0.694 | 0.645
101.33 kPa, x2 = 0.9024 | 0.847 | 0.781 | 0.724
101.33 kPa, x2 = 0.9503 | 0.898 | 0.826 | 0.762

CCN(CC)CC + C1CCCCC1
303.15 K, 101 kPa
Conditions | viscosity [mPa·s]
x1 = 0.01021 | 0.8057
x1 = 0.01915 | 0.7913
x1 = 0.0299 | 0.7725
x1 = 0.04221 | 0.7556
x1 = 0.04976 | 0.7402
x1 = 0.0618 | 0.7264
x1 = 0.07115 | 0.7134
x1 = 0.07987 | 0.7009
x1 = 0.08947 | 0.6879
x1 = 0.09947 | 0.6772

ClC(Cl)(Cl)Cl + C1CCCCC1
Conditions | viscosity [mPa·s]
298 K, 101 kPa, x1 = 0.2753 | 0.8903
298 K, 101 kPa, x1 = 0.3845 | 0.8916
298 K, 101 kPa, x1 = 0.4418 | 0.8924
298 K, 101 kPa, x1 = 0.4727 | 0.8928
298 K, 101 kPa, x1 = 0.58 | 0.8943
298 K, 101 kPa, x1 = 0.6707 | 0.8955
298 K, 101 kPa, x1 = 0.6805 | 0.8956
298 K, 101 kPa, x1 = 0.7701 | 0.8969
298 K, 101 kPa, x1 = 0.864 | 0.8982
298 K, 101.3 kPa, x1 = 0.1774 | 0.847
298 K, 101.3 kPa, x1 = 0.3265 | 0.831
298 K, 101.3 kPa, x1 = 0.5278 | 0.836
298 K, 101.3 kPa, x1 = 0.6746 | 0.844
298 K, 101.3 kPa, x1 = 0.8521 | 0.86
298.15 K, 101 kPa, x1 = 0.272 | 0.858
298.15 K, 101 kPa, x1 = 0.5295 | 0.8568
298.15 K, 101 kPa, x1 = 0.7707 | 0.867
298.15 K, 101.33 kPa, x1 = 0.272 | 0.858
298.15 K, 101.33 kPa, x1 = 0.5 | 0.8551
298.15 K, 101.33 kPa, x1 = 0.5295 | 0.8568
298.15 K, 101.33 kPa, x1 = 0.625 | 0.8594
298.15 K, 101.33 kPa, x1 = 0.7707 | 0.867
318 K, 101.3 kPa, x1 = 0.1636 | 0.6445
318 K, 101.3 kPa, x1 = 0.3244 | 0.6522
318 K, 101.3 kPa, x1 = 0.5293 | 0.667
318 K, 101.3 kPa, x1 = 0.6744 | 0.6869
318 K, 101.3 kPa, x1 = 0.8658 | 0.7148
